Source: PubChem BioAssay (NCI)
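Following 48 hours of exposure in 96-well plates, responses at five concentrations were used to interpolate endpoints linearly. Abbreviation: GI50, concentration required for 50% inhibition of growth. TGI marks complete inhibition of growth.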

Columns and labels:
Test in all cases: inhibition of tumour cell growth, NCI panel, 48 h
[1] = system: M14 melanoma
[2] = system: MCF7 breast
[3] = system: SK-MEL-2 melanoma
[4] = system: SK-OV-3 ovarian
[5] = system: HCT-116 colon
[6] = system: MOLT-4 leukemia
[7] = system: RXF 393 renal
[8] = system: SF-268 CNS
[9] = system: 786-0 renal
[10] = system: HOP-62 NSCLC
[11] = system: BT-549 breast
[12] = system: HCC-2998 colon
[13] = system: DU-145 prostate
[14] = system: CAKI-1 renal
[15] = system: HCT-15 colon
[16] = system: OVCAR-5 ovarian
[17] = system: SNB-75 CNS
[18] = system: A498 renal
[19] = system: NCI-H23 lung
[20] = system: RPMI-8226 leukemia
[21] = system: OVCAR-3 ovarian
[22] = system: HT29 colon
[23] = system: HL-60(TB) leukemia
[24] = system: SF-295 CNS
[25] = system: U251 CNS
[26] = system: MDA-MB-435
[27] = system: UO-31 renal
[28] = system: COLO 205 colon
[29] = system: MDA-MB-231 breast
[30] = system: NCI-H226 lung
[31] = system: UACC-62 melanoma
[32] = system: NCI-H460 lung
[33] = system: SF-539 CNS
[34] = system: SK-MEL-5 melanoma
[35] = system: A549 NSCLC
[36] = system: TK-10 renal
[37] = system: KM12 colon
[38] = system: EKVX NSCLC
[39] = system: SW-620 colon
[40] = system: OVCAR-4 ovarian
[41] = system: ACHN renal
[42] = system: UACC-257 melanoma
[43] = system: SN12C renal
[44] = system: HS 578T breast
[45] = system: SNB-19 CNS
[46] = system: K-562 leukemia
[47] = system: MALME-3M melanoma
[48] = system: T-47D breast
[49] = system: SR leukemia
[50] = system: NCI-H522 lung
[51] = system: CCRF-CEM leukemia
[52] = system: PC-3 prostate
[53] = system: OVCAR-8 ovarian
[54] = system: SK-MEL-28 melanoma
[55] = system: NCI/ADR-RES ovarian
[56] = system: IGROV1 ovarian
[57] = system: LOX IMVI melanoma

With `COc1cnc2c(c1)C(=O)c1c-2n(CCCNC2=NCCS2)c(=O)c2cc(Cl)ccc12` the GI50 [1] was 82.9 nM, the TGI [1] was 1810 nM and the GI50 [2] was 36.6 nM. For the same compound, the TGI [2] was 1320 nM, the GI50 [3] was 18300 nM and the TGI [3] was 34300 nM. It also gave a GI50 [4] of 316 nM, a TGI [4] of 1640 nM and a GI50 [5] of 352 nM. For the same compound, the TGI [5] was 2190 nM, the GI50 [6] was 45.4 nM and the TGI [6] was 1710 nM. For the same compound, the GI50 [7] was 783 nM, the TGI [7] was 2200 nM and the GI50 [8] was 88 nM. For the same compound, the TGI [8] was 2060 nM, the GI50 [9] was 239 nM and the TGI [9] was 1720 nM. For the same compound, the GI50 [10] was 42.5 nM, the TGI [10] was 1510 nM and the GI50 [11] was 1050 nM. For the same compound, the TGI [11] was 2560 nM, the GI50 [12] was 1360 nM and the TGI [12] was 2680 nM. For the same compound, the GI50 [13] was 92.9 nM, the TGI [13] was 1830 nM and the GI50 [14] was 44.4 nM. For the same compound, the TGI [14] was 1600 nM, the GI50 [15] was 1260 nM and the TGI [15] was 2670 nM. The GI50 [16] was 1820 nM, the TGI [16] was 3450 nM and the GI50 [17] was 1230 nM. The TGI [17] was 2510 nM, the GI50 [18] was 1290 nM and the TGI [18] was 19800 nM. It also gave a GI50 [19] of 300 nM, a TGI [19] of 2110 nM and a GI50 [20] of 1070 nM. It also gave a TGI [20] of 4890 nM, a GI50 [21] of 1350 nM and a TGI [21] of 3070 nM. It also gave a GI50 [22] of 121 nM, a TGI [22] of 2230 nM and a GI50 [23] of 656 nM. For the same compound, the TGI [23] was 3390 nM, the GI50 [24] was 77.6 nM and the TGI [24] was 1070 nM. For the same compound, the GI50 [25] was 54.6 nM, the TGI [25] was 1820 nM and the GI50 [26] was 1430 nM. For the same compound, the TGI [26] was 2760 nM, the GI50 [27] was 163 nM and the TGI [27] was 1740 nM. It also gave a GI50 [28] of 1060 nM, a TGI [28] of 2410 nM and a GI50 [29] of 1520 nM. The TGI [29] was 3070 nM, the GI50 [30] was 687 nM and the TGI [30] was 2290 nM. For the same compound, the GI50 [31] was 95.3 nM, the TGI [31] was 1940 nM and the GI50 [32] was 29.9 nM. For the same compound, the TGI [32] was 1160 nM, the GI50 [33] was 475 nM and the TGI [33] was 1800 nM. The GI50 [34] was 812 nM, the TGI [34] was 2120 nM and the GI50 [35] was 1200 nM. It also gave a TGI [35] of 2510 nM, a GI50 [36] of 1660 nM and a TGI [36] of 3090 nM. For the same compound, the GI50 [37] was 1330 nM, the TGI [37] was 2820 nM and the GI50 [38] was 1640 nM. The TGI [38] was 3390 nM, the GI50 [39] was 146 nM and the TGI [39] was 2080 nM. For the same compound, the GI50 [40] was 1420 nM, the TGI [40] was 2950 nM and the GI50 [41] was 48.7 nM. The TGI [41] was 1490 nM, the GI50 [42] was 1530 nM and the TGI [42] was 3110 nM.

Compound `ON=C(CC(O)(C(F)(F)Cl)C(F)(F)Cl)CC(O)(C(F)(F)Cl)C(F)(F)Cl` has a TGI [43] greater than 10000 nM, a TGI [2] greater than 10000 nM and a TGI [3] of 7840 nM. For the same compound, the TGI [44] was greater than 10000 nM, the TGI [4] was greater than 10000 nM and the TGI [5] was greater than 10000 nM. It also gave a TGI [6] greater than 10000 nM, a TGI [7] of 7790 nM and a TGI [8] greater than 10000 nM. For the same compound, the TGI [9] was greater than 10000 nM, the TGI [10] was 9780 nM and the TGI [12] was greater than 10000 nM. For the same compound, the TGI [13] was greater than 10000 nM, the TGI [14] was greater than 10000 nM and the TGI [15] was greater than 10000 nM. For the same compound, the TGI [45] was greater than 10000 nM, the TGI [17] was greater than 10000 nM and the TGI [18] was greater than 10000 nM. It also gave a TGI [19] greater than 10000 nM, a TGI [20] greater than 10000 nM and a TGI [21] greater than 10000 nM. The TGI [22] was greater than 10000 nM, the TGI [23] was greater than 10000 nM and the TGI [46] was greater than 10000 nM. The TGI [24] was greater than 10000 nM, the TGI [25] was greater than 10000 nM and the TGI [47] was greater than 10000 nM. For the same compound, the TGI [26] was greater than 10000 nM, the TGI [48] was greater than 10000 nM and the TGI [49] was greater than 10000 nM. For the same compound, the TGI [27] was greater than 10000 nM, the TGI [28] was greater than 10000 nM and the TGI [50] was greater than 10000 nM. The TGI [30] was greater than 10000 nM, the TGI [51] was greater than 10000 nM and the TGI [31] was greater than 10000 nM. For the same compound, the TGI [32] was greater than 10000 nM, the TGI [33] was greater than 10000 nM and the TGI [34] was greater than 10000 nM. It also gave a TGI [35] greater than 10000 nM, a TGI [52] greater than 10000 nM and a TGI [36] greater than 10000 nM. For the same compound, the TGI [53] was greater than 10000 nM, the TGI [54] was greater than 10000 nM and the TGI [37] was greater than 10000 nM. It also gave a TGI [55] greater than 10000 nM, a TGI [38] greater than 10000 nM and a TGI [56] greater than 10000 nM. For the same compound, the TGI [39] was greater than 10000 nM, the TGI [40] was greater than 10000 nM and the TGI [41] was greater than 10000 nM. The TGI [42] was greater than 10000 nM and the TGI [57] was greater than 10000 nM.
